Experimental data taken from PubChem BioAssay (NCI).
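Interpolation was linear, between the two tested concentrations surrounding the appropriate level; five concentrations were tested over 48 hours in 96-well plates. TGI: concentration producing complete growth inhibition.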

Legend:
Test in all cases: DTP human tumour cell line panel, 48 h
[1] = tested on: 786-0 renal
[2] = tested on: A498 renal
[3] = tested on: A549 NSCLC
[4] = tested on: ACHN renal
[5] = tested on: CAKI-1 renal
[6] = tested on: CCRF-CEM leukemia
[7] = tested on: COLO 205 colon
[8] = tested on: DLD-1 colon
[9] = tested on: DMS 114 small cell lung
[10] = tested on: EKVX NSCLC
[11] = tested on: HCC-2998 colon
[12] = tested on: HCT-116 colon
[13] = tested on: HCT-15 colon
[14] = tested on: HL-60(TB) leukemia
[15] = tested on: HOP-18 NSCLC
[16] = tested on: HOP-92 NSCLC
[17] = tested on: HT29 colon
[18] = tested on: IGROV1 ovarian
[19] = tested on: K-562 leukemia
[20] = tested on: KM12 colon
[21] = tested on: LOX IMVI melanoma
[22] = tested on: LXFL 529 NSCLC
[23] = tested on: M14 melanoma
[24] = tested on: M19-MEL melanoma
[25] = tested on: MALME-3M melanoma
[26] = tested on: MOLT-4 leukemia
[27] = tested on: NCI-H226 lung
[28] = tested on: NCI-H23 lung
[29] = tested on: NCI-H460 lung
[30] = tested on: NCI-H522 lung
[31] = tested on: OVCAR-4 ovarian
[32] = tested on: OVCAR-5 ovarian
[33] = tested on: OVCAR-8 ovarian
[34] = tested on: RPMI-8226 leukemia
[35] = tested on: RXF-631 renal
[36] = tested on: SF-268 CNS
[37] = tested on: SF-295 CNS
[38] = tested on: SF-539 CNS
[39] = tested on: SK-MEL-2 melanoma
[40] = tested on: SK-MEL-28 melanoma
[41] = tested on: SK-MEL-5 melanoma
[42] = tested on: SK-OV-3 ovarian
[43] = tested on: SN12C renal
[44] = tested on: SNB-75 CNS
[45] = tested on: SNB-78 CNS
[46] = tested on: SR leukemia
[47] = tested on: SW-620 colon
[48] = tested on: TK-10 renal
[49] = tested on: U251 CNS
[50] = tested on: UACC-257 melanoma
[51] = tested on: UACC-62 melanoma
[52] = tested on: UO-31 renal
[53] = tested on: XF 498 CNS
[54] = tested on: DMS 273 small cell lung
[55] = tested on: HOP-62 NSCLC
[56] = tested on: KM20L2 colon
[57] = tested on: RXF 393 renal
[58] = tested on: OVCAR-3 ovarian
[59] = tested on: SNB-19 CNS

## N#C/C(=C/c1ccco1)C(=O)c1ccccc1
[1]
  TGI: > 100 µM
[2]
  TGI: > 100 µM
[3]
  TGI: > 100 µM
[4]
  TGI: > 100 µM
[5]
  TGI: > 100 µM
[6]
  TGI: > 100 µM
[7]
  TGI: > 100 µM
[8]
  TGI: > 100 µM
[9]
  TGI: > 100 µM
[10]
  TGI: > 100 µM
[11]
  TGI: > 100 µM
[12]
  TGI: > 100 µM
[13]
  TGI: > 100 µM
[14]
  TGI: > 100 µM
[15]
  TGI: > 100 µM
[16]
  TGI: > 100 µM
[17]
  TGI: > 100 µM
[18]
  TGI: > 100 µM
[19]
  TGI: > 100 µM
[20]
  TGI: > 100 µM
[21]
  TGI: > 100 µM
[22]
  TGI: > 100 µM
[23]
  TGI: > 100 µM
[24]
  TGI: > 100 µM
[25]
  TGI: > 100 µM
[26]
  TGI: > 100 µM
[27]
  TGI: > 100 µM
[28]
  TGI: > 100 µM
[29]
  TGI: > 100 µM
[30]
  TGI: > 100 µM
[31]
  TGI: > 100 µM
[32]
  TGI: > 100 µM
[33]
  TGI: > 100 µM
[34]
  TGI: > 100 µM
[35]
  TGI: > 100 µM
[36]
  TGI: > 100 µM
[37]
  TGI: > 100 µM
[38]
  TGI: > 100 µM
[39]
  TGI: > 100 µM
[40]
  TGI: > 100 µM
[41]
  TGI: > 100 µM
[42]
  TGI: > 100 µM
[43]
  TGI: > 100 µM
[44]
  TGI: > 100 µM
[45]
  TGI: > 100 µM
[46]
  TGI: > 100 µM
[47]
  TGI: > 100 µM
[48]
  TGI: > 100 µM
[49]
  TGI: > 100 µM
[50]
  TGI: > 100 µM
[51]
  TGI: > 100 µM
[52]
  TGI: > 100 µM
[53]
  TGI: > 100 µM

## N/N=C(/Cc1ccccc1)NNC(N)=S
[1]
  TGI: > 100 µM
[2]
  TGI: > 100 µM
[3]
  TGI: > 100 µM
[4]
  TGI: > 100 µM
[6]
  TGI: > 100 µM
[7]
  TGI: > 100 µM
[8]
  TGI: > 100 µM
[9]
  TGI: > 100 µM
[54]
  TGI: > 100 µM
[10]
  TGI: > 100 µM
[11]
  TGI: > 100 µM
[13]
  TGI: > 100 µM
[14]
  TGI: > 100 µM
[15]
  TGI: > 100 µM
[55]
  TGI: > 100 µM
[16]
  TGI: > 100 µM
[17]
  TGI: > 100 µM
[18]
  TGI: > 100 µM
[19]
  TGI: > 100 µM
[20]
  TGI: > 100 µM
[56]
  TGI: > 100 µM
[21]
  TGI: > 100 µM
[22]
  TGI: > 100 µM
[23]
  TGI: > 100 µM
[24]
  TGI: > 100 µM
[25]
  TGI: > 100 µM
[26]
  TGI: > 100 µM
[27]
  TGI: > 100 µM
[29]
  TGI: > 100 µM
[30]
  TGI: 76 µM
[31]
  TGI: > 100 µM
[32]
  TGI: > 100 µM
[33]
  TGI: > 100 µM
[34]
  TGI: > 100 µM
[57]
  TGI: > 100 µM
[35]
  TGI: > 100 µM
[36]
  TGI: > 100 µM
[37]
  TGI: > 100 µM
[38]
  TGI: > 100 µM
[39]
  TGI: > 100 µM
[40]
  TGI: > 100 µM
[42]
  TGI: > 100 µM
[44]
  TGI: > 100 µM
[47]
  TGI: > 100 µM
[48]
  TGI: > 100 µM
[49]
  TGI: > 100 µM
[50]
  TGI: > 100 µM
[51]
  TGI: > 100 µM
[52]
  TGI: > 100 µM
[53]
  TGI: > 100 µM

## CN(CC(=O)O)S(=O)(=O)c1ccc(F)cc1
[1]
  TGI: > 100 µM
[2]
  TGI: > 100 µM
[3]
  TGI: > 100 µM
[4]
  TGI: > 100 µM
[5]
  TGI: > 100 µM
[6]
  TGI: > 100 µM
[7]
  TGI: > 100 µM
[8]
  TGI: > 100 µM
[54]
  TGI: > 100 µM
[10]
  TGI: > 100 µM
[11]
  TGI: > 100 µM
[13]
  TGI: > 100 µM
[14]
  TGI: > 100 µM
[15]
  TGI: > 100 µM
[16]
  TGI: > 100 µM
[17]
  TGI: > 100 µM
[18]
  TGI: > 100 µM
[19]
  TGI: > 100 µM
[20]
  TGI: > 100 µM
[56]
  TGI: > 100 µM
[21]
  TGI: > 100 µM
[22]
  TGI: > 100 µM
[23]
  TGI: > 100 µM
[24]
  TGI: > 100 µM
[25]
  TGI: > 100 µM
[26]
  TGI: > 100 µM
[28]
  TGI: > 100 µM
[29]
  TGI: > 100 µM
[30]
  TGI: > 100 µM
[58]
  TGI: > 100 µM
[31]
  TGI: > 100 µM
[32]
  TGI: > 100 µM
[33]
  TGI: > 100 µM
[34]
  TGI: > 100 µM
[57]
  TGI: > 100 µM
[35]
  TGI: > 100 µM
[36]
  TGI: > 100 µM
[37]
  TGI: > 100 µM
[38]
  TGI: > 100 µM
[39]
  TGI: > 100 µM
[40]
  TGI: > 100 µM
[41]
  TGI: > 100 µM
[42]
  TGI: > 100 µM
[43]
  TGI: > 100 µM
[59]
  TGI: > 100 µM
[44]
  TGI: > 100 µM
[47]
  TGI: > 100 µM
[48]
  TGI: > 100 µM
[49]
  TGI: > 100 µM
[50]
  TGI: > 100 µM
[51]
  TGI: > 100 µM
[52]
  TGI: > 100 µM
[53]
  TGI: > 100 µM
